The values that follow come from patent US20090221433A1, “SMALL MOLECULE PRINTING” (priority 2006, published 2009).

For experiment [1], the system named is anti-17β-estradiol antibody. The experiment in a line: Bioactive microarray binding profile, anti-17β-estradiol antibody. Also noted: species or system rabbit. Conditions: anti-17β-estradiol then labeled secondary antibody; replicate arrays. How it is done: (§1) To investigate the suitability of our approach for printing compounds that have not been intentionally synthesized with appendages for covalent capture, more than 300 commercially available bioactive compounds were printed onto isocyanate-functionalized slides. We screened these bioactive microarrays using rabbit primary antibodies against corticosterone, digitoxin, and 17β-estradiol, followed by a fluor-labeled goat anti-rabbit secondary antibody. The signal-to-noise ratio (SNR) was determined by calculating intensity at 635 nm and adjusting for local background for each feature on replicate arrays, and data were compared to replicate control arrays incubated with the labeled secondary antibody alone (FIG. 4). […] In the anti-corticosterone antibody binding profile, hydrocortisone (mean SNR 68.9), beclomethasone (63.3), and corticosterone (59.2), corticosteroids related in structure, scored as positives. […] 17β-estradiol (mean SNR 9.0), estriol (8.7) and estrone (7.3), primary estrogenic hormones varying in the number of reactive groups for capture, scored as positives in the anti-17β-estradiol binding profile.
(§2) Small-molecule microarray profiles with antibodies against natural products. […] Arrays were dried by centrifugation and scanned for fluorescence at 635 nm. Signal-to-noise ratio was calculated for each feature using adjusted diameters.

Experiment [2] relates to anti-digitoxin antibody. Kind of experiment: Bioactive microarray binding profile, anti-digitoxin antibody. Also noted: species or system rabbit. Conditions: anti-digitoxin then labeled secondary antibody; replicate arrays. On the procedure:
We screened these bioactive microarrays using rabbit primary antibodies against corticosterone, digitoxin, and 17β-estradiol, followed by a fluor-labeled goat anti-rabbit secondary antibody. The signal-to-noise ratio (SNR) was determined by calculating intensity at 635 nm and adjusting for local background for each feature on replicate arrays, and data were compared to replicate control arrays incubated with the labeled secondary antibody alone (FIG. 4).
Microarrays printed with natural products and bioactives were incubated with various antibodies to detect specific compounds. In the first incubation step, arrays were incubated with 300 μL of one of the following: PBST buffer (control), a 1:500 solution of rabbit anti-corticosterone whole antiserum in PBST, 1:500 solution of rabbit anti-17β-estradiol whole antiserum in PBST for 30 min at room temperature. The arrays were briefly rinsed with PBST and then washed twice in PBST. All arrays were then incubated with 300 μL of a 1:1000 solution of Alexa Fluor® 647 […] polyclonal secondary antibody in PBST for 30 min at room temperature. Probed arrays were rinsed in PBST, washed three times in PBST, and washed once in PBS. Arrays were dried by centrifugation and scanned for fluorescence at 635 nm. Signal-to-noise ratio was calculated for each feature using adjusted diameters.

In experiment [3] the test system is Alexa Fluor 647 goat-anti-rabbit IgG. Kind of experiment: Bioactive microarray control, labeled secondary antibody alone. The experiment is classed as binding. The conditions noted are these: labeled polyclonal secondary antibody alone. On the procedure: as §1, §2
Experiment [4] deals with anti-corticosterone antibody. Kind of experiment: Bioactive microarray binding profile, anti-corticosterone antibody. Conditions: anti-corticosterone then Alexa Fluor 647 goat-anti-rabbit; replicate arrays. How it is done:
as §1, with “4). Six bioactives, with signal-to-noise ratios>3.0, were found in replicate arrays to bind to the labeled polyclonal secondary antibody alone. None of the compounds were autofluorescent at 635 nm as judged by arrays probed with PBS buffer alone (data not shown). Hygromycin B, an aminoglycoside antibiotic, gave the highest adjusted signal-to-noise ratio (mean SNR 47.6).” for “4).”
Small-molecule microarray profiles with antibodies against natural products. Microarrays printed with natural products and bioactives were incubated with various antibodies to detect specific compounds. […] Arrays were dried by centrifugation and scanned for fluorescence at 635 nm. Signal-to-noise ratio was calculated for each feature using adjusted diameters.

Experiment [5] addresses T1, FKBP12-6xHis (Homo sapiens, UniProt P62942).
T1 construct: made in house
The conditions noted are these: Table 1; cited from earlier work.

In experiment [6] the target is FKBP12 (Homo sapiens, UniProt P62942). The conditions noted are these: affinity of AP1497 for FKBP12; cited from earlier work.

pKd: −log10 of the molar value.

For orientation: pKd means the Kd on a negative log10 scale, so that one unit is a factor of ten.

FKBP12, sequence (P62942 whole entry, species assumed): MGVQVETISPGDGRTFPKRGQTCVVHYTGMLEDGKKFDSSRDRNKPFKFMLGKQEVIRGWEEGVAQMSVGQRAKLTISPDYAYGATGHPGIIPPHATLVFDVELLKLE
T1 sequence (P62942 whole entry): as the sequence (P62942 whole entry, species assumed) above

Regarding `C[C@]12CC[C@@H]3c4ccc(O)cc4CC[C@H]3[C@@H]1CC[C@@H]2O` [17β-estradiol], in experiment [1], the “mean SNR (signal-to-noise ratio at 635 nm)” value was 9.0. Take `C[C@]12CC[C@H](O)C[C@H]1CC[C@@H]1[C@@H]2CC[C@]2(C)[C@@H](C3=CC(=O)OC3)[C@@H](O)C[C@]12O` [Gitoxigenin]: in experiment [2], the “mean SNR (signal-to-noise ratio at 635 nm)” value stood at 62.5. Take `CN[C@H]1C[C@@H](N)[C@H](O)[C@@H](O[C@@H]2O[C@H](CO)[C@H](O)[C@@H]3OC4(O[C@H]23)O[C@H]([C@@H](N)CO)[C@H](O)[C@H](O)[C@H]4O)[C@@H]1O` (stereo partly drawn) [Hygromycin B]: the “adjusted signal-to-noise ratio (mean SNR)” value in experiment [3] is listed as 47.6. Turning to `C[C@H]1C[C@H]2[C@@H]3CCC4=CC(=O)C=C[C@]4(C)[C@@]3(Cl)[C@@H](O)C[C@]2(C)[C@@]1(O)C(=O)CO` [beclomethasone], the “mean SNR (signal-to-noise ratio at 635 nm)” value in experiment [4] was determined as 63.3. As to `C[C@@H]1O[C@@H](O[C@H]2CC[C@]3(C=O)[C@H]4CC[C@]5(C)[C@@H](C6=CC(=O)OC6)CC[C@]5(O)[C@@H]4CC[C@]3(O)C2)[C@H](O)[C@H](O)[C@H]1O` [convallatoxin], the “mean SNR (signal-to-noise ratio at 635 nm)” value in experiment [2] is 52.7. As to `C[C@]12C[C@H](O)[C@H]3[C@@H](CCC4=CC(=O)CC[C@@]43C)[C@@H]1CC[C@@H]2C(=O)CO` [corticosterone], the “mean SNR (signal-to-noise ratio at 635 nm)” value in experiment [4] amounted to 59.2.

As to `C[C@H]1O[C@@H](O[C@H]2[C@@H](O)C[C@H](O[C@H]3[C@@H](O)C[C@H](O[C@H]4CC[C@@]5(C)[C@H](CC[C@@H]6[C@@H]5CC[C@]5(C)[C@@H](C7=CC(=O)OC7)CC[C@]65O)C4)O[C@@H]3C)O[C@@H]2C)C[C@H](O)[C@@H]1O` [digitoxin], the “mean SNR (signal-to-noise ratio at 635 nm)” value in experiment [2] is 15.1. For `C[C@]12CC[C@@H]3c4ccc(O)cc4CC[C@H]3[C@@H]1C[C@@H](O)[C@@H]2O` [estriol], the “mean SNR (signal-to-noise ratio at 635 nm)” value in experiment [1] was 8.7.

Take `C[C@]12CCC(=O)C=C1CC[C@@H]1[C@@H]2[C@@H](O)C[C@@]2(C)[C@H]1CC[C@]2(O)C(=O)CO` [hydrocortisone]: the “mean SNR (signal-to-noise ratio at 635 nm)” value in experiment [4] stood at 68.9. As to `CC(=O)O[C@H]1C[C@H](O[C@H]2[C@@H](O)C[C@H](O[C@H]3[C@@H](O)C[C@H](O[C@H]4CC[C@@]5(C)[C@H](CC[C@@H]6[C@@H]5C[C@@H](O)[C@]5(C)[C@@H](C7=CC(=O)OC7)CC[C@]65O)C4)O[C@@H]3C)O[C@@H]2C)O[C@H](C)[C@H]1O[C@@H]1O[C@H](CO)[C@@H](O)[C@H](O)[C@H]1O` [lanatoside C], the “mean SNR (signal-to-noise ratio at 635 nm)” value in experiment [2] is 24.0. With AP1497, the pKd in experiment [5] is 7.74; in experiment [6] it was 8.06.
